Results reported in ChEMBL document CHEMBL1136440, “Design and synthesis of novel RXR-selective modulators with improved pharmacological profile” (Bioorg Med Chem Lett, 2003).
Several values for one entry are separate records, joined by “and”; a condition that tells them apart may be missing. Identical values can stand only once.

How the values were obtained:
[1] = molecular target: T1, Retinoic acid receptor alpha (Homo sapiens) (UniProt P10276); test: Agonist synergy against RAR alpha was tested along with 3 nM TTNPB; assay type: functional; conditions: Cercopithecidae
T1 sequence (whole entry): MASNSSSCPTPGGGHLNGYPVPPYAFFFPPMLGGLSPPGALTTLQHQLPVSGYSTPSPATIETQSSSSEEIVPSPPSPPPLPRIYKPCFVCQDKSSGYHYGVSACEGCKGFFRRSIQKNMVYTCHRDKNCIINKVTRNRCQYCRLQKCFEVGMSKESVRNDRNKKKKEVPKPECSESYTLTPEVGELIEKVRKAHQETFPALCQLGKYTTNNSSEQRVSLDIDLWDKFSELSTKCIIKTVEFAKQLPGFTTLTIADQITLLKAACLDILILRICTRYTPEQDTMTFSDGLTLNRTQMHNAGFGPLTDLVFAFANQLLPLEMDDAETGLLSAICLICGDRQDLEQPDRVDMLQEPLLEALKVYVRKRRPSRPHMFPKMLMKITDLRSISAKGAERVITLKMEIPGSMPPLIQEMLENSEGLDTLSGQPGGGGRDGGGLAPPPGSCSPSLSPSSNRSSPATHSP

[2] = molecular target: T2, Retinoic acid receptor RXR-beta (Homo sapiens, UniProt P28702); test: Displacement of [3H]9-cis-RA from RXR beta receptor in CV-1 cells; assay type: cell-based, Cercopithecidae
T2 sequence (P28702 whole entry): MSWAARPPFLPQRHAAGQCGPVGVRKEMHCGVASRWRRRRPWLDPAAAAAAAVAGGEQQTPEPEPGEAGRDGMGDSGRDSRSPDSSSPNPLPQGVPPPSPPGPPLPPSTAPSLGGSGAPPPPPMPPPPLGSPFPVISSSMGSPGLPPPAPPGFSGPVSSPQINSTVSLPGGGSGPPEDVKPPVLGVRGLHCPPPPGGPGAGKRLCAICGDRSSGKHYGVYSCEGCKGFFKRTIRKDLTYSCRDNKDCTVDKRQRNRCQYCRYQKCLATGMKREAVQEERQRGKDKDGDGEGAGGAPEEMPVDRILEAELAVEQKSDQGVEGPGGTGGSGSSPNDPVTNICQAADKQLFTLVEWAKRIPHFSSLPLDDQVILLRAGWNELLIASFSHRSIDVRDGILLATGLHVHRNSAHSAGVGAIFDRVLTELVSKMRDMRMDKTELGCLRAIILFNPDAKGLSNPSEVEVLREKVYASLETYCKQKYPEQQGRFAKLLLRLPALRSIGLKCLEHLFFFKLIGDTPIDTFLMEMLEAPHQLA

[3] = molecular target: T3, Peroxisome proliferator-activated receptor gamma (Homo sapiens, UniProt P37231)
T3 sequence (P37231 whole entry): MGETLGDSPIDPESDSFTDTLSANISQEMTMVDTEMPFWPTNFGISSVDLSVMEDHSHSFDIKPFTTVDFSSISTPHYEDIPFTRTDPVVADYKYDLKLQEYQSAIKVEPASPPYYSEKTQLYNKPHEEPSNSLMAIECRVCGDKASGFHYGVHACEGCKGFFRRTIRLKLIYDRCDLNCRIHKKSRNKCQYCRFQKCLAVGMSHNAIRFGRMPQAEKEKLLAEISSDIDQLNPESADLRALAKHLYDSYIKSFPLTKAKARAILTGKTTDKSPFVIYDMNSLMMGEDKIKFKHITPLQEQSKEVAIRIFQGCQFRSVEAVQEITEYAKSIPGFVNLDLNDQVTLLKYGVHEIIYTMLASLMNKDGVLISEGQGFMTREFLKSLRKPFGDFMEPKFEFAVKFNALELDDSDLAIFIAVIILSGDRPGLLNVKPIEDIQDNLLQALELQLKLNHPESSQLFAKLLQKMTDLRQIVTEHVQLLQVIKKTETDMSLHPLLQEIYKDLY
Description: In vitro agonist efficacy against PPAR gamma along with 100 nM BRL-49653

[4] = molecular target: T4, Retinoic acid receptor beta (Homo sapiens, UniProt P10826); test: Binding affinity against RAR beta receptor using [3H]ATRA as radioligand in CV-1 cells; assay type: cell-based, Cercopithecidae
T4 sequence (P10826 whole entry): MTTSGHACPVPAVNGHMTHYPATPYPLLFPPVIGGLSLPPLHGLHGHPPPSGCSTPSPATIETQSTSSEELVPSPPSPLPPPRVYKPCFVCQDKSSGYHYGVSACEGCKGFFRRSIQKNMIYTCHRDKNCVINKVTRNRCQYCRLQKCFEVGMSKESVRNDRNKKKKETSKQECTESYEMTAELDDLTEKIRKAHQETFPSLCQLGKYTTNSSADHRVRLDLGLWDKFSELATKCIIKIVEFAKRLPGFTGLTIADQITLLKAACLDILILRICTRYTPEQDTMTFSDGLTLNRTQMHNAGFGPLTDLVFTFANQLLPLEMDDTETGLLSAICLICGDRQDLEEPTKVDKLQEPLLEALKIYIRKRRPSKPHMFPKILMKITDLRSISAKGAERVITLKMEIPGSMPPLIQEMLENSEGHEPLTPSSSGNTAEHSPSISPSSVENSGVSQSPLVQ

[5] = molecular target: T5, Retinoic acid receptor alpha (Homo sapiens, UniProt P10276); test: Binding affinity against RAR alpha receptor using [3H]ATRA as radioligand in CV-1 cells; assay type: cell-based, Cercopithecidae
T5 sequence (P10276 whole entry): T1 sequence (whole entry)

[6] = molecular target: T6, Retinoic acid receptor RXR-alpha (Homo sapiens, UniProt P19793); test: biochemical
T6 sequence (P19793 whole entry): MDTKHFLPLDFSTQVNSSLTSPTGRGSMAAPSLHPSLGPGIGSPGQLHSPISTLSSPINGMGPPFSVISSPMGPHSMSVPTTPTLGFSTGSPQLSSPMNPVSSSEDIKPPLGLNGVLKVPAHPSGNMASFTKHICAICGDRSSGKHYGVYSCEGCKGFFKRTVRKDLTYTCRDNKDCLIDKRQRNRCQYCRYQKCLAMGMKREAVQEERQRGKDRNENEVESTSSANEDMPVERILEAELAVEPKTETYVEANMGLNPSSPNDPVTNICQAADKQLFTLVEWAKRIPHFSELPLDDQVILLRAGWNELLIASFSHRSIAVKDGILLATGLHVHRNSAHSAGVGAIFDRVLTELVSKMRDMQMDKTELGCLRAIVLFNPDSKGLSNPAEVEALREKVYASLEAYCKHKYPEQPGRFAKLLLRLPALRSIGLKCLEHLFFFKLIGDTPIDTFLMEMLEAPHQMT
Description: Binding affinity against RXR alpha receptor using [3H]9-cis-RA as radioligand in CV-1 cells

[7] = molecular target: T6, Retinoic acid receptor RXR-alpha; test: In vitro antagonist activity against RXR alpha in CV-1 cells; assay type: functional, cell-based, Cercopithecidae
[8] = molecular target: T7, Retinoic acid receptor RXR-gamma (Homo sapiens, UniProt P48443); test: Binding affinity against RXR gamma receptor using [3H]9-cis-RA as radioligand in CV-1 cells; assay type: cell-based, Cercopithecidae
T7 sequence (P48443 whole entry): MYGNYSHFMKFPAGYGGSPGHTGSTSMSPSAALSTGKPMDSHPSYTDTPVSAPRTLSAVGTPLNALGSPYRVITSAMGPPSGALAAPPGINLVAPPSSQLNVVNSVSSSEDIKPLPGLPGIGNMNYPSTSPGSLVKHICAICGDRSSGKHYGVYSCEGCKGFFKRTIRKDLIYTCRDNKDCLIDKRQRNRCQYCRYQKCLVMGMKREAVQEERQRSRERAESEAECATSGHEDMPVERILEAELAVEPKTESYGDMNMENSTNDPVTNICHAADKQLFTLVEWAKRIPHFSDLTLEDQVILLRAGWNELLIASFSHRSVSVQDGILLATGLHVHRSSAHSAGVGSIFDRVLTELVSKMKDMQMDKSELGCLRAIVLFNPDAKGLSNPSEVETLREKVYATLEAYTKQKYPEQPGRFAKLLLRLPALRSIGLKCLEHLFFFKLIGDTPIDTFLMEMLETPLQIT

[9] = molecular target: T8, Retinoic acid receptor gamma (Homo sapiens, UniProt P13631); test: Displacement of [3H]ATRA from RAR gamma receptor expressed in CV-1 cells; assay type: cell-based, Cercopithecidae
T8 sequence (P13631 whole entry): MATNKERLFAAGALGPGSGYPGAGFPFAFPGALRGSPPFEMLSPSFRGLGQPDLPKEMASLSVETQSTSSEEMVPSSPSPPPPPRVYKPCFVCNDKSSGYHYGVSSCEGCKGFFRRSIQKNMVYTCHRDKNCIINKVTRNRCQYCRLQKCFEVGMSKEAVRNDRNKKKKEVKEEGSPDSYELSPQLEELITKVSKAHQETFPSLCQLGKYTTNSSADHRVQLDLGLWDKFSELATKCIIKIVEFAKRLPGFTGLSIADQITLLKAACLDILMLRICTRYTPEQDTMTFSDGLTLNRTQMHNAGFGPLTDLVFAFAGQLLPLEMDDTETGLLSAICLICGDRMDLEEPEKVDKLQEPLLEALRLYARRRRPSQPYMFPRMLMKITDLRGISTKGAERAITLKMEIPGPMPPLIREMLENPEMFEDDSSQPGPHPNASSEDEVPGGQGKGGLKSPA

[10] = molecular target: T3, Peroxisome proliferator-activated receptor gamma; remark: listed apart in the source
Description: In vitro agonistic activity against PPAR gamma along with 100 nM BRL-49653

[11] = Cmax value in IRC mice; assay type: ADME, organism-based; conditions: mouse, in vivo
[12] = Tmax value in IRC mice; assay type: ADME, organism-based; conditions: mouse, in vivo
[13] = Area under curve at 0-8 hr in IRC mice after peroral administration; assay type: ADME, organism-based; set-up: time < 8 hr, route oral; conditions: mouse, in vivo, po
[14] = molecular target: T8, Retinoic acid receptor gamma; test: Binding affinity against RAR gamma receptor using [3H]ATRA as radioligand in CV-1 cells; assay type: cell-based, Cercopithecidae
[15] = molecular target: T8, Retinoic acid receptor gamma; test: Displacement of [3H]ATRA from RAR gamma receptor in CV-1 cells; […]; assay type: cell-based, Cercopithecidae

CCCOc1c(\C(C)=C/C=C/C(C)=C/C(=O)O)cc(C(C)C)cc1C(F)(F)C(F)(F)F
Synergy [1]: 9.4 nM
Ki [2]: 9.9 nM
EC50 [3]: 29 nM
Ki [4]: > 10000 nM
Ki [5]: > 10000 nM
Ki [6]: 85.8 nM
IC50 [7]: 10.7 nM
Ki [8]: 23.6 nM
Ki [9]: > 10000 nM
EC50 [10]: 15.1 nM

CC(/C=C/C(F)=C(/C)c1cc(C(C)(C)C)cc(C(C)(C)C)c1OCC(F)F)=C\C(=O)O
Synergy [1]: 1.8 nM
Ki [2]: 11.5 nM
EC50 [3]: 63 nM
Ki [4]: 5680 nM
Cmax [11]: 3690 ng/mL and 8.41 µM
Tmax [12]: 3 h
AUC(0-t) at 8 h [13]: 17700 ng·h/mL
Ki [5]: 8300 nM
IC50 [7]: 6.8 nM
Ki [8]: 13.2 nM
Ki [14]: > 10000 nM
EC50 [10]: 6.4 nM

C/C(=C/C=C/C(C)=C/C(=O)O)c1cc(-c2ccco2)cc(C(C)C)c1OCC(F)F
Synergy [1]: 1.2 nM
EC50 [3]: 37 nM
Ki [15]: > 10000 nM
Ki [6]: 3 nM
IC50 [7]: 3.6 nM
EC50 [10]: 7.4 nM
